Results: ChEMBL document CHEMBL1147409, “3-(4-Aminobutyn-1-yl)pyridines: binding at alpha 4 beta 2 nicotinic cholinergic receptors” (Bioorg Med Chem Lett, 2004)

target: Neuronal acetylcholine receptor; alpha4/beta2 (Homo sapiens, UniProt P17787+P43681); assay: Binding affinity towards nicotinic acetylcholine receptor alpha4-beta2; type: protein-complex assay
Sequence (P17787 whole entry): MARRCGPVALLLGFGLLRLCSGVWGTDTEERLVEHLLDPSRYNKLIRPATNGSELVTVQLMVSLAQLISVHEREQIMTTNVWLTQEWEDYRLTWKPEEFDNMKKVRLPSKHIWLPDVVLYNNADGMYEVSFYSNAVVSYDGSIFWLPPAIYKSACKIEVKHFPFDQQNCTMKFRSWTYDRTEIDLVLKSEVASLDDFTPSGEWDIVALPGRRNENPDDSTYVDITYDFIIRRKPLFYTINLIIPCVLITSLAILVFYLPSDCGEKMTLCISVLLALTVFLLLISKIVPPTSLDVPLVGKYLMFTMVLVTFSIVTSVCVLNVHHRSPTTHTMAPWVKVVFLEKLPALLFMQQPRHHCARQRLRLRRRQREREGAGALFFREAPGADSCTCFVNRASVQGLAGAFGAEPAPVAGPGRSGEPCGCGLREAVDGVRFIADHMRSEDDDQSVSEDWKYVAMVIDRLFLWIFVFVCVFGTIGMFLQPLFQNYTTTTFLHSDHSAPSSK
Sequence (P43681 whole entry): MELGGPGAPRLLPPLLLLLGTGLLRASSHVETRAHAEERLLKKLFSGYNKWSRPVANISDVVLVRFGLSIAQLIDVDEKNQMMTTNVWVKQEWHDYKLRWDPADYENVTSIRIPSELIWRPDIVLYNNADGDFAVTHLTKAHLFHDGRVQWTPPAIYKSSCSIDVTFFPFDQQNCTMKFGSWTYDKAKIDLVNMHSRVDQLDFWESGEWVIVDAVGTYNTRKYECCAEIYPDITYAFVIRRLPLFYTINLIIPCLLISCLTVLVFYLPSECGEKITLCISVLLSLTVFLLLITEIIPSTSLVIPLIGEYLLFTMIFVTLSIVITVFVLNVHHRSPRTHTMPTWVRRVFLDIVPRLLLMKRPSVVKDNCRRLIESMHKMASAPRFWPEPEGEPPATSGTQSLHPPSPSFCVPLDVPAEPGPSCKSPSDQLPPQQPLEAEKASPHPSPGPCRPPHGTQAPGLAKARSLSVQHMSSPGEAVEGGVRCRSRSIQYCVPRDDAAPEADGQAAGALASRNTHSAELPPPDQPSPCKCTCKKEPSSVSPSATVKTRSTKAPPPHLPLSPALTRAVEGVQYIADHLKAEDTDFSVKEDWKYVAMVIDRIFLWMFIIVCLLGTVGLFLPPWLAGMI

SMILES	Ki
CNC/C=C/c1cccnc1	~6000 nM
CNCC#Cc1cccnc1	2290 nM
CNCC/C=C/c1cccnc1 [RIVANICLINE]	25 nM

target: Neuronal acetylcholine receptor alpha4/beta2 (Rattus norvegicus); assay: Binding affinity towards nicotinic acetylcholine receptor alpha4-beta2 from rat brain homogenates

SMILES	Ki
C(#Cc1cccnc1)CCN1CCCC1	> 10000 nM
c1cncc(CN2CCCC2)c1	30 nM
CNCc1cccnc1	> 10000 nM
C[N+](C)(C)CCOc1cccnc1	0.5 nM
CN(C)CCOc1cccnc1	21 nM
CN(C)CCC#Cc1cccnc1	510 nM
CNCCC#Cc1ccc(Cl)nc1	154 nM
CNCCOc1cccnc1	35 nM
C[N+](C)(C)Cc1cccnc1	110 nM
CN(C)Cc1cccnc1	540 nM
c1cncc(OCCN2CCCC2)c1	212 nM
C[N+](C)(C)CCC#Cc1cccnc1	470 nM
CNCCC#Cc1ccc(OC)nc1	> 10000 nM
CCN(C)Cc1cccnc1	28 nM
